Assay results from patent US20040121946A9, “Inducing cellular immune responses to her2/neu using peptide and nucleic acid compositions” (priority 2002, published 2004).
pIC50: −log10 of the molar value.

Assays:
Format in all cases: binding
Conditions in all cases: Table XXIII, HLA-A3 supermotif-bearing peptides
[1] = molecular target: HLA-A*0301 (Homo sapiens, UniProt P04439)
[2] = molecular target: HLA-A*1101 (Homo sapiens, UniProt P04439, A114D/D185E/E176A/F33Y/L180Q/S129P/T187R)
[3] = molecular target: HLA-A*3101 (Homo sapiens, UniProt P04439, A270S/D185E/E176V/E277Q/F33T/G231S/G80R/H175R/I121M/I218V/I322F/K168Q/L300P/L318F/M331R/P217A/Q94H/R138Q/T323A/T345S/T97I/V358M)
[4] = molecular target: HLA-A*3301 (Homo sapiens, UniProt P04439, A270S/D185E/E176V/E277Q/E87N/F33T/G231S/H175R/I121M/I218V/I322F/K168Q/K210R/L300P/L318F/M331R/P217A/Q86R/Q94H/R138Q/T323A/T345S/T97I/V358M/Y195H)
[5] = molecular target: HLA-A*6801 (Homo sapiens, UniProt P04439, A269V/D185E/E176V/E277Q/E87N/F33Y/G231S/I121M/I166T/I218V/L180W/L300P/L318F/N151K/P208A/P217A/Q86R/R169H/T345S)

Chain of HLA-A*1101 (P04439 25-365 limits assumed, stated change not applied): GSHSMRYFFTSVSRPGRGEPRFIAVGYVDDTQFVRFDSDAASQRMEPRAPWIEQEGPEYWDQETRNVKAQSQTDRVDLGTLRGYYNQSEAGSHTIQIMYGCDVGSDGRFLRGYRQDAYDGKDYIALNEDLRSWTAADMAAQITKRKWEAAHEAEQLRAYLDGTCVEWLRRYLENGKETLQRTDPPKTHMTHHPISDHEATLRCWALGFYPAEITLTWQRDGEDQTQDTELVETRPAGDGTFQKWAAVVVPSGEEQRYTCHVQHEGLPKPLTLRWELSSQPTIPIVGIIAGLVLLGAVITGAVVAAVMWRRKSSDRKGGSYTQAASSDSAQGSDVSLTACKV

Compound | pIC50 [1] | pIC50 [2] | pIC50 [3] | pIC50 [4] | pIC50 [5]
CC[C@H](C)[C@H](N)C(=O)N[C@@H](CC(C)C)C(=O)N[C@@H](CCCCN)C(=O)NCC(=O)NCC(=O)N[C@H](C(=O)N[C@@H](CC(C)C)C(=O)N[C@H](C(=O)N[C@@H](CCC(N)=O)C(=O)N[C@@H](CCCNC(=N)N)C(=O)O)[C@@H](C)CC)C(C)C [Her2/neu.148] | 6.56 | < 5.00 | 7.60 | 6.92 | 6.69
CC[C@H](C)[C@H](NC(=O)[C@H](CC(=O)O)NC(=O)[C@H](CCCCN)NC(=O)[C@H](Cc1c[nH]c2ccccc12)NC(=O)[C@H](CC(C)C)NC(=O)[C@@H](NC(=O)[C@@H](N)[C@@H](C)O)C(C)C)C(=O)N[C@@H](Cc1ccccc1)C(=O)N[C@@H](Cc1c[nH]cn1)C(=O)N[C@@H](CCCNC(=N)N)C(=O)O [Her2/neu.166.V2R10] | 5.07 | 6.54 | 6.22 | 7.12 | 7.38
CC[C@H](C)[C@H](N)C(=O)N[C@H](C(=O)N[C@@H](Cc1c[nH]c2ccccc12)C(=O)N[C@@H](CCCCN)C(=O)N[C@@H](CC(=O)O)C(=O)N[C@H](C(=O)N[C@@H](Cc1ccccc1)C(=O)N[C@@H](Cc1c[nH]cn1)C(=O)N[C@@H](CCCNC(=N)N)C(=O)O)[C@@H](C)CC)C(C)C [Her2/neu.167.V2R9] | 6.84 | 6.54 | 8.22 | 7.80 | 7.82
CC[C@H](C)[C@H](N)C(=O)N[C@H](C(=O)N[C@@H](Cc1c[nH]c2ccccc12)C(=O)N[C@@H](CCCCN)C(=O)N[C@@H](CC(=O)O)C(=O)N[C@H](C(=O)N[C@@H](Cc1ccccc1)C(=O)N[C@@H](Cc1c[nH]cn1)C(=O)N[C@@H](CCCCN)C(=O)O)[C@@H](C)CC)C(C)C [Her2/neu.167.V2] | 7.64 | 7.40 | 6.61 | 6.07 | 6.75
CC[C@H](C)[C@H](N)C(=O)N[C@@H](CC(C)C)C(=O)N[C@@H](Cc1c[nH]c2ccccc12)C(=O)N[C@@H](CCCCN)C(=O)N[C@@H](CC(=O)O)C(=O)N[C@H](C(=O)N[C@@H](Cc1ccccc1)C(=O)N[C@@H](Cc1c[nH]cn1)C(=O)N[C@@H](CCCCN)C(=O)O)[C@@H](C)CC [Her2/neu.167] | 7.41 | 7.72 | 7.09 | 6.01 | 5.76
CC(C)[C@H](NC(=O)[C@@H](NC(=O)[C@@H](N)CCCNC(=N)N)[C@@H](C)O)C(=O)N[C@@H](CS)C(=O)N[C@@H](C)C(=O)NCC(=O)NCC(=O)N[C@@H](CS)C(=O)N[C@@H](C)C(=O)N[C@@H](CCCNC(=N)N)C(=O)O [Her2/neu.217] | 5.79 | 6.34 | 7.40 | – | 6.49
